SMILES strings stand for the structures. The source made the active and inactive calls. The rule behind the calls is not given here.

A short description of data set [1]: Toxicity in C57BL/6J mouse assessed as effect on relative liver weight at 40 mg/kg, ip. It is filed as organism-based. To be noted: in vivo.
Data set [2] relates to Mus musculus. Put plainly: Reduction in hepatic steatosis in HFD-induced C57BL/6J mouse model of NAFL assessed as reduction in number of lipid droplets in hepatocytes at 20 to 40 mg/kg/day, ip administered from week 7 to week 12 by H&E staining analysis. The class given is functional, organism-based. The conditions noted are these: dose 20-40 mg/kg/day, time 6.0 weeks.
The test system of data set [3] is Mus musculus. Put plainly: Reduction in hepatic steatosis in HFD-induced C57BL/6J mouse model of NAFL assessed as reduction in serum LDL level at 20 to 40 mg/kg/day, ip administered from week 7 to week 12. The class given is functional, organism-based. The conditions noted are these: dose 20-40 mg/kg/day, time 6.0 weeks.
Data set [4] deals with Mus musculus. Put plainly: Reduction in hepatic steatosis in HFD-induced C57BL/6J mouse model of NAFL assessed as reduction in serum triglyceride level at 20 to 40 mg/kg/day, ip administered from week 7 to week 12. The class given is functional, organism-based. To be noted: dose 20-40 mg/kg/day, time 6.0 weeks.
Data set [5] in a line: Toxicity in C57BL/6J mouse assessed as effect on serum cholesterol level at 40 mg/kg, ip. It is filed as organism-based. The conditions noted are these: in vivo.
For data set [6], the system named is Mus musculus. Put plainly: Upregulation of peroxisomal acyl-coenzyme A oxidase-2 enzyme expression in liver of HFD-induced C57BL/6J mouse model of NAFL at 15 mg/kg/day, ip administered from week 7 to week 12 by immunoblotting analysis. It is filed as functional, organism-based. The conditions noted are these: time 6.0 weeks. For orientation: A western blot detects proteins with antibodies after separation by electrophoresis.

As for `C[C@H]1CO[C@]2(C)Oc3cc(O)c4c(c3C[C@H]12)O[C@@]1(C)OC[C@H](C)[C@H]1C4`, the Activity entry in data set [1] and in data set [5] was “Non-Toxic” throughout. Further, the outcome with Mus musculus [2], in the data set on Mus musculus [3], in the data set with Mus musculus [4] and with Mus musculus [6] was Active.

Values taken from ChEMBL document CHEMBL5137054, “Xyloketal B Reverses Nutritional Hepatic Steatosis, Steatohepatitis, and Liver Fibrosis through Activation of the PPARα/PGC1α Signaling Pathway” (J Nat Prod, 2022).
